{"source": "paper PMC4967059", "about": "“Efficient 9α-hydroxy-4-androstene-3,17-dione production by engineered Bacillus subtilis co-expressing Mycobacterium neoaurum 3-ketosteroid 9α-hydroxylase and B. subtilis glucose 1-dehydrogenase with NADH regeneration” (SpringerPlus, 2016)", "target": "T1, KshB (Mycolicibacterium neoaurum, UniProt D2Y640)", "T1 construct": "gene kstR; pMA5-kshB primer R1 carries no His-tag", "T1 sequence (D2Y640 entry or part of it)": "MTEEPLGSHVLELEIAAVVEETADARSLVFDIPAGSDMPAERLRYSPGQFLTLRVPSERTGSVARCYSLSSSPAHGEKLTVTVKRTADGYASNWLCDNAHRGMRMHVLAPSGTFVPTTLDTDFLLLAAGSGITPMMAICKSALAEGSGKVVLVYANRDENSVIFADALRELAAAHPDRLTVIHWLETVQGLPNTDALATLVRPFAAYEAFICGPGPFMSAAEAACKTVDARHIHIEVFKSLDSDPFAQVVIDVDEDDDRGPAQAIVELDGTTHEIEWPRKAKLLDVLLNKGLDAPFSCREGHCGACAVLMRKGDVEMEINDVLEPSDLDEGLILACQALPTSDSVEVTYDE", "test": "dichlorophenolindophenol reduction assay", "type": "biochemical", "details": "0.25 mM NADH, 0.1 mM 2,6-dichlorophenolindophenol, 50 mM Tris-HCl pH 7.0, room temperature; electron donor; data not shown"}
{"smiles": "NC(=O)C1=CN([C@@H]2O[C@H](COP(=O)(O)OP(=O)(O)OC[C@H]3O[C@@H](n4cnc5c(N)ncnc54)[C@H](O)[C@@H]3O)[C@@H](O)[C@H]2O)C=CC1", "note": "[NADH]", "values": [{"measurement": "dichlorophenolindophenol reduction assay", "value": "accepts electrons from NAD(P)H and transfers it to oxygenase component KshA"}]}
